From patent publication US6914045B2, “Glycopeptide antibiotics” (Wyeth Holdings Corporation, priority 2001, dated 2005)
Values after ≈ are worked out from the molar mass of the structure shown. Numbered stars: 1 amine (or outer) side, 2 acyl side, 3 side chain; on linkers, the order of the positions; unused ones are H or OH. Square brackets hold non-standard residues; d marks the D form. Peptide text beside a SMILES is read from it. ξ: configuration not given here. X6 = N=C1NCC(CC(N[*:1])C(=O)[*:2])N1C1OC(CO)C(O)C(O)C1O; Tyr(3-NO2) = N[CH](Cc1ccc(O)c([N+](=O)[O-])c1)C(=O)O; X7 = N=C1NCC(CC(N[*:1])C(=O)[*:2])N1; ξPhe(βξ-Me) = CC(c1ccccc1)C(N)C(=O)O

Key:
Test in all cases: in vitro antibacterial evaluation, MIC by broth dilution
Assay type in all cases: cell-based
[1] = tested on: Enterococcus sp.; settings: broth dilution, 18 hours at 35° C.
Procedure, shortened: (§1)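 Read-out: the lowest concentration at which the test strain fails to grow. Serial dilutions (64-0.06 μg/mL) in Muller-Hinton II […], 5×10^5 CFU/mL inoculum, NCCLS M7-A2 procedure.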

[2] = tested on: Staphylococcus sp.
Procedure, shortened: as §1

[3] = tested on: Streptococcus sp.; settings: broth dilution, 18 hours at 35° C.
Procedure, shortened: as §1

[4] = tested on: Escherichia coli; settings: 18 hours at 35° C.

Structure (SMILES): CCCC(C)C1OCC2OC(OC3C(CO)OC(Oc4ccc(CC5NC(=O)C(C(C)c6ccc(Cl)cc6)NC(=O)CNC(=O)C(CO)NC(=O)C(C(O)C6CNC(=N)N6C6OC(CO)C(O)C(O)C6O)NC(=O)C(C(O)C6CNC(=N)N6)NC5=O)cc4)C(O)C3O)C(O)C(O)C2O1 (stereo not drawn) [Example 194]
- MIC Enterococcus avium (GC 4558) [1]: 2 µg/mL (≈ 1.42 µM)
- MIC Enterococcus faecalis (ATCC 29212) [1]: 2 µg/mL (≈ 1.42 µM)
- MIC Enterococcus faecalis (GC 2242) [1]: 1 µg/mL (≈ 0.708 µM)
- MIC Enterococcus faecalis (GC 2691) [1]: 2 µg/mL (≈ 1.42 µM)
- MIC Enterococcus faecalis (GC 3059) [1]: 1 µg/mL (≈ 0.708 µM)
- MIC Enterococcus faecalis (GC 4552) [1]: 1 µg/mL (≈ 0.708 µM)
- MIC Enterococcus faecalis (GC 4553) [1]: 2 µg/mL (≈ 1.42 µM)
- MIC Enterococcus faecalis (GC 4554) [1]: 1 µg/mL (≈ 0.708 µM)
- MIC Enterococcus faecalis (GC 6189) [1]: 0.5 µg/mL (≈ 0.354 µM)
- MIC Enterococcus faecium (GC 2243) [1]: 1 µg/mL (≈ 0.708 µM)
- MIC Enterococcus faecium (GC 4556) [1]: 1 µg/mL (≈ 0.708 µM)
- MIC Enterococcus faecium (GC 4557) [1]: 2 µg/mL (≈ 1.42 µM)
- MIC Enterococcus faecalis (ATCC 29212) ([1]; inoculum 5×10^5 CFU/mL, strain ATCC 29212): 2 µg/mL (≈ 1.42 µM)
- MIC Enterococcus faecalis (GC 2242) ([1]; inoculum 5×10^5 CFU/mL, strain GC 2242): 1 µg/mL (≈ 0.708 µM)
- MIC Enterococcus faecium (GC 2243) ([1]; inoculum 5×10^5 CFU/mL, strain GC 2243): 1 µg/mL (≈ 0.708 µM)
- MIC Enterococcus faecalis (GC 2691) ([1]; inoculum 5×10^5 CFU/mL, strain GC 2691): 2 µg/mL (≈ 1.42 µM)
- MIC Enterococcus faecalis (GC 3059) ([1]; inoculum 5×10^5 CFU/mL, strain GC 3059): 1 µg/mL (≈ 0.708 µM)
- MIC Enterococcus faecalis (GC 4552) ([1]; inoculum 5×10^5 CFU/mL, strain GC 4552): 1 µg/mL (≈ 0.708 µM)
- MIC Enterococcus faecalis (GC 4553) ([1]; inoculum 5×10^5 CFU/mL, strain GC 4553): 2 µg/mL (≈ 1.42 µM)
- MIC Enterococcus faecalis (GC 4554) ([1]; inoculum 5×10^5 CFU/mL, strain GC 4554): 1 µg/mL (≈ 0.708 µM)
- MIC Enterococcus faecium (GC 4556) ([1]; inoculum 5×10^5 CFU/mL, strain GC 4556): 1 µg/mL (≈ 0.708 µM)
- MIC Enterococcus faecium (GC 4557) ([1]; inoculum 5×10^5 CFU/mL, strain GC 4557): 2 µg/mL (≈ 1.42 µM)
- MIC Enterococcus avium (GC 4558) ([1]; inoculum 5×10^5 CFU/mL, strain GC 4558): 2 µg/mL (≈ 1.42 µM)
- MIC Enterococcus faecalis (GC 6189) ([1]; inoculum 5×10^5 CFU/mL, strain GC 6189): 0.5 µg/mL (≈ 0.354 µM)
- MIC Staphylococcus aureus (GC 1131) ([2]; broth dilution, 18 hours at 35° C., inoculum 5×10^5 CFU/mL; strain GC 1131): 1 µg/mL (≈ 0.708 µM)
- MIC Staphylococcus aureus (ATCC 29213) ([2]; strain ATCC 29213; broth dilution, 18 hours at 35° C.): 0.5 µg/mL (≈ 0.354 µM)
- MIC Staphylococcus aureus (GC 1131) ([2]; strain GC 1131; broth dilution, 18 hours at 35° C.): 1 µg/mL (≈ 0.708 µM)
- MIC Staphylococcus aureus (GC 3051) ([2]; strain GC 3051; broth dilution, 18 hours at 35° C.): 1 µg/mL (≈ 0.708 µM)
- MIC Staphylococcus aureus (GC 3053) ([2]; strain GC 3053; broth dilution, 18 hours at 35° C.): 1 µg/mL (≈ 0.708 µM)
- MIC Staphylococcus aureus (GC 4541) ([2]; strain GC 4541; broth dilution, 18 hours at 35° C.): 0.5 µg/mL (≈ 0.354 µM)
- MIC Staphylococcus aureus (GC 4542) ([2]; strain GC 4542; broth dilution, 18 hours at 35° C.): 0.5 µg/mL (≈ 0.354 µM)
- MIC Staphylococcus aureus-SMITH (GC 4543) ([2]; strain GC 4543; broth dilution, 18 hours at 35° C.): 0.5 µg/mL (≈ 0.354 µM)
- MIC Staphylococcus aureus (GC 4544) ([2]; strain GC 4544; broth dilution, 18 hours at 35° C.): 2 µg/mL (≈ 1.42 µM)
- MIC Staphylococcus aureus (GC 4545) ([2]; strain GC 4545; broth dilution, 18 hours at 35° C.): 1 µg/mL (≈ 0.708 µM)
- MIC Staphylococcus haemolyticus (GC 4546) ([2]; strain GC 4546; broth dilution, 18 hours at 35° C.): 0.5 µg/mL (≈ 0.354 µM)
- MIC Coagulase Negative Staphylococcus (GC 4547) ([2]; strain GC 4547; broth dilution, 18 hours at 35° C.): 1 µg/mL (≈ 0.708 µM)
- MIC Coagulase Negative Staphylococcus (GC 4548) ([2]; strain GC 4548; broth dilution, 18 hours at 35° C.): 0.5 µg/mL (≈ 0.354 µM)
- MIC Coagulase Negative Staphylococcus (GC 4549) ([2]; strain GC 4549; broth dilution, 18 hours at 35° C.): 0.5 µg/mL (≈ 0.354 µM)
- MIC Coagulase Negative Staphylococcus (GC 4551) ([2]; strain GC 4551; broth dilution, 18 hours at 35° C.): 1 µg/mL (≈ 0.708 µM)
- MIC Coagulase Negative Staphylococcus (GC 6257) ([2]; strain GC 6257; broth dilution, 18 hours at 35° C.): 0.5 µg/mL (≈ 0.354 µM)
- MIC Streptococcus agalactiae (GC 4564) [3]: <0.06 µg/mL
- MIC Streptococcus pneumoniae (ATCC 6301) [3]: 0.25 µg/mL (≈ 0.177 µM)
- MIC Streptococcus pneumoniae (GC 1894) [3]: 0.12 µg/mL (≈ 0.085 µM)
- MIC Streptococcus pneumoniae (GC 4565) [3]: <0.06 µg/mL
- MIC Streptococcus pyogenes (GC 4563) [3]: <0.06 µg/mL
- MIC Streptococcus pneumoniae (ATCC 6301) ([3]; inoculum 5×10^5 CFU/mL, strain ATCC 6301): 0.25 µg/mL (≈ 0.177 µM)
- MIC Streptococcus pneumoniae (GC 1894) ([3]; inoculum 5×10^5 CFU/mL, strain GC 1894): 0.12 µg/mL (≈ 0.085 µM)
- MIC Streptococcus pyogenes (GC 4563) ([3]; inoculum 5×10^5 CFU/mL, strain GC 4563): <0.06 µg/mL
- MIC Streptococcus agalactiae (GC 4564) ([3]; inoculum 5×10^5 CFU/mL, strain GC 4564): <0.06 µg/mL
- MIC Streptococcus pneumoniae (GC 4565) ([3]; inoculum 5×10^5 CFU/mL, strain GC 4565): <0.06 µg/mL
- MIC Escherichia coli (GC 4559) [4]: 32 µg/mL (≈ 22.7 µM)
- MIC Escherichia coli (GC 4560) [4]: 2 µg/mL (≈ 1.42 µM)

Structure (SMILES): CC(c1ccccc1)C1NC(=O)CNC(=O)C(CO)NC(=O)C(CC2CNC(=N)N2C2OC(CO)C(O)C(O)C2O)NC(=O)C(CC2CNC(=N)N2)NC(=O)C(Cc2ccc(O)c([N+](=O)[O-])c2)NC1=O (stereo not drawn) [Example 10, Cyclo[3-(2-iminoimidazolidin-4-yl)alanyl-3-(3-hexopyranosyl-2-iminoimidazolidin-4-yl)-alanylserylglycyl-β-methylphenylalanyl-3-nitrotyrosyl]] (cyclo(G[ξPhe(βξ-Me)][Tyr(3-NO2)][X7][X6]S); configuration not given here)
- MIC Enterococcus faecalis (ATCC 29212) ([1]; strain ATCC 29212): >64 µg/mL
- MIC Enterococcus faecalis (GC 2242) ([1]; strain GC 2242): >64 µg/mL
- MIC Enterococcus faecium (GC 2243) ([1]; strain GC 2243): >64 µg/mL
- MIC Enterococcus faecalis (GC 2691) ([1]; strain GC 2691): >64 µg/mL
- MIC Enterococcus faecalis (GC 3059) ([1]; strain GC 3059): >64 µg/mL
- MIC Enterococcus faecalis (GC 4552) ([1]; strain GC 4552): >64 µg/mL
- MIC Enterococcus faecalis (GC 4553) ([1]; strain GC 4553): >64 µg/mL
- MIC Enterococcus faecalis (GC 4554) ([1]; strain GC 4554): >64 µg/mL
- MIC Enterococcus faecium (GC 4556) ([1]; strain GC 4556): >64 µg/mL
- MIC Enterococcus faecium (GC 4557) ([1]; strain GC 4557): >64 µg/mL
- MIC Enterococcus avium (GC 4558) ([1]; strain GC 4558): >64 µg/mL
- MIC Enterococcus faecalis (GC 6189) ([1]; strain GC 6189): >64 µg/mL
- MIC Staphylococcus aureus (ATCC 29213) ([2]; broth dilution, 18 hours at 35° C.; strain ATCC 29213): >64 µg/mL
- MIC Staphylococcus aureus (GC 1131) ([2]; broth dilution, 18 hours at 35° C.; strain GC 1131): >64 µg/mL
- MIC Staphylococcus aureus (GC 3051) ([2]; broth dilution, 18 hours at 35° C.; strain GC 3051): >64 µg/mL
- MIC Staphylococcus aureus (GC 3053) ([2]; broth dilution, 18 hours at 35° C.; strain GC 3053): >64 µg/mL
- MIC Staphylococcus aureus (GC 4541) ([2]; broth dilution, 18 hours at 35° C.; strain GC 4541): >64 µg/mL
- MIC Staphylococcus aureus (GC 4542) ([2]; broth dilution, 18 hours at 35° C.; strain GC 4542): >64 µg/mL
- MIC Staphylococcus aureus-SMITH (GC 4543) ([2]; broth dilution, 18 hours at 35° C.; strain GC 4543): >64 µg/mL
- MIC Staphylococcus aureus (GC 4544) ([2]; broth dilution, 18 hours at 35° C.; strain GC 4544): >64 µg/mL
- MIC Staphylococcus aureus (GC 4545) ([2]; broth dilution, 18 hours at 35° C.; strain GC 4545): >64 µg/mL
- MIC Staphylococcus haemolyticus (GC 4546) ([2]; broth dilution, 18 hours at 35° C.; strain GC 4546): >64 µg/mL
- MIC Coagulase Negative Staphylococcus (GC 4547) ([2]; broth dilution, 18 hours at 35° C.; strain GC 4547): >64 µg/mL
- MIC Coagulase Negative Staphylococcus (GC 4548) ([2]; broth dilution, 18 hours at 35° C.; strain GC 4548): >64 µg/mL
- MIC Coagulase Negative Staphylococcus (GC 4549) ([2]; broth dilution, 18 hours at 35° C.; strain GC 4549): >64 µg/mL
- MIC Coagulase Negative Staphylococcus (GC 4551) ([2]; broth dilution, 18 hours at 35° C.; strain GC 4551): >64 µg/mL
- MIC Coagulase Negative Staphylococcus (GC 6257) ([2]; broth dilution, 18 hours at 35° C.; strain GC 6257): >64 µg/mL
- MIC Streptococcus pneumoniae (ATCC 6301) ([3]; strain ATCC 6301): >64 µg/mL
- MIC Streptococcus pneumoniae (GC 1894) ([3]; strain GC 1894): >64 µg/mL
- MIC Streptococcus pyogenes (GC 4563) ([3]; strain GC 4563): >64 µg/mL
- MIC Streptococcus agalactiae (GC 4564) ([3]; strain GC 4564): >64 µg/mL
- MIC Streptococcus pneumoniae (GC 4565) ([3]; strain GC 4565): >64 µg/mL
- MIC Escherichia coli (ATCC 25922) ([4]; strain ATCC 25922, broth dilution): >64 µg/mL
- MIC Escherichia coli (GC 4559) ([4]; strain GC 4559, broth dilution): >64 µg/mL
- MIC Escherichia coli (GC 4560) ([4]; strain GC 4560, broth dilution): >64 µg/mL
